Assay [1] concerns IOSE 7576 normal ovary cells. The experiment in a line: Cell proliferation assay, IOSE 7576 normal ovary cells. In kind it is cell-based, human. The conditions noted are these: for IC50: Homo sapiens, 96 h, 0-1000 nM, mean (standard error), 3-5 experiments. The text has this: For the tumor cells, except the des-methyl compound 4 with IGROV1 cells, all compounds were inhibitory. […]
Reagents for biological studies. Leucovorin [(6R,S) 5-formyl tetrahydrofolate] and methotrexate (MTX) was provided by the Drug Development Branch, National Cancer Institute, Bethesda, MD. Other chemicals were obtained from commercial sources in the highest available purities. Pemetrexed (PMX; 1) [N-{4-[2- (2-amino-3,4-dihydro-4-oxo-7H-pyrrolo[2,3-d]pyrimidin-5-yl)ethyl]benzoyl-L-glutamic acid] (Alimta) was purchased from LC Laboratories (Woburn, MA). The syntheses of compounds 2 and 3 were previously described.7, 8 Additional chemicals were purchased from commercial sources in the highest available purities. […]
KB nasopharyngeal carcinoma cells were obtained from the American Type Culture Collection (Manassas, VA) and IGROV1 (NCI-IGROV1) (passage 5) ovarian adenocarcinoma cells13 were obtained from the Division of Cancer Treatment and Diagnosis, National Cancer Institute (Frederick, MD). Normal ovary cells immortalized with SV40 (IOSE 7576)14 were obtained from the Canadian OvCaRe Cell Bank […]
(Vancouver, B.C). IGROV1, KB and IOSE 7576 cells were cultured in complete FF-RPMI with 10% fetal bovine serum and 100 units/mL penicillin/100 μg/mL streptomycin, and 2 mM L-glutamine. Cell lines were tested for Mycoplasma by PCR using a Mycloplasma testing kit (Venor™ GeM Mycoplasma Detection Kit, Sigma). Frozen stocks were generated from authenticated Mycoplasma-free cultures.
(§1) For cell proliferation assays, CHO, KB, NCI-IGROV1 and IOSE 7576 cells were plated in 96-well dishes at densities ranging from 2500-5000 cells/well in 200 μL media and treated with a range of inhibitors spanning 0-1000 nM. Experiments with RT16, D4, IGROV1, IOSE 7576 and KB cells used folate-free RPMI 1640 (FF RPMI) media with 10% dialyzed fetal bovine serum and 100 units/mL penicillin/100 μg/mL streptomycin, supplemented with 2 nM leucovorin and 2 mM L-glutamine. FR-mediated drug uptake was assessed in parallel incubations including 200 nM folic acid. For R2/PCFT4, PC43-10 and R2 CHO cells, the medium was FF-RPMI supplemented with 10% dialyzed fetal bovine serum, 100 units/mL penicillin/100 μg/mL streptomycin, 25 nM leucovorin and 2 mM L-glutamine.
(§2) Cells were treated over a 96 h period at 37° C with 5% CO2 and relative cell numbers quantified using the CellTiter-blue cell viability assay (Promega, Madison, WI) and a fluorescence plate reader. Raw data were exported to Excel for analysis and the results were plotted using Graphpad Prism 6.0. Determinations of IC50s were made […]
(§3) assays have been previously described.7, 8, 11, 12, 15-20
Using KB cells, additional proliferation assays were performed with metabolite protection in folate- and glycine-free RPMI1640 with 10% dialyzed fetal bovine serum, 2 mM L-glutamine and antibiotics with 2 nM leucovorin to identify the targeted pathway and enzyme(s). 7, 8, 11, 12, 15-20 Inhibitory effects of the novel analogs on de novo thymidylate biosynthesis and de novo purine nucleotide biosynthesis were tested by incubating drugs with thymidine (10 μM) and adenosine (60 μM), respectively. Incubation with glycine (130 µM) was used to assess the potential involvement of mitochondrial C1 targeted agents.15 To identify multiple metabolic targets, metabolite additions were added in combination.7, 8, 11, 12, 15-19 Finally, to distinguish targeting between the folate-dependent purine biosynthetic enzymes glycinamide ribonucleotide formyltransferase (GARFTase) and 5-aminoimidazole-4-carboxamide (AICA) ribonucleotide formyltransferase (AICARFTase), co-incubation experiments were performed using AICA hydrochloride (320 μM). 7, 8, 11, 12, […]
Statistics. The biological data reflect at least three experimental replicates. All statistical comparisons were performed using unpaired t-tests. Biological data are presented as mean values +/- standard errors using data without transformation.

The subject of assay [2] is D4 (FRβ) CHO cells. The experiment in a line: Cell proliferation assay, D4 CHO cells expressing FRβ. Format: cell-based, Chinese hamster. The conditions noted are these: for IC50: Cricetulus griseus, CHO, 96 h, 0-1000 nM, mean (standard error), 3-5 experiments; for RFC/FRβ Selectivity ratios: ratio of IC50 PC43-10 (RFC) to IC50 D4 (FRβ).
Text: (§4) To assess the impact of 6-methyl substitutions on the bicyclic scaffolds of the pyrrolo[2,3-d]pyrimidine antifolates 1–4 on RFC transport vis-à-vis PCFT, FRα, and FRβ, we used a unique biological readout for transport activity. This involved proliferation assays with isogenic Chinese hamster ovary (CHO) sublines derived from RFC-, FR-, and PCFT-null MTXRIIOua^R2–4 CHO cells[39],[40] engineered to express the human FRα (RT16),[25] FRβ (D4),[25] RFC (PC43–10),[41] or PCFT (R2/PCFT4).[26],[42] As these CHO cell lines are genetically identical except for their folate transporters, differences in inhibition of cell proliferation by specific cytotoxic antifolates directly reflect transporter specificities.[19],[23]−[31],[42] […]
(§5) Reagents for biological studies. Leucovorin [(6R,S) 5-formyl tetrahydrofolate] and methotrexate (MTX) was provided by the Drug Development Branch, National Cancer Institute, Bethesda, MD. Other chemicals were obtained from commercial sources in the highest available purities. Pemetrexed (PMX; 1) [N-{4-[2- (2-amino-3,4-dihydro-4-oxo-7H-pyrrolo[2,3-d]pyrimidin-5-yl)ethyl]benzoyl-L-glutamic acid] (Alimta) was purchased from LC Laboratories (Woburn, MA). The syntheses of compounds 2 and 3 were previously described.7, 8 Additional chemicals were purchased from commercial sources in the highest available purities.
(§6) Cell Culture. The reduced folate carrier (RFC), proton-coupled folate transporter (SLC46A1; PCFT) and folate receptor (FR) α- and β-null Chinese hamster ovary (CHO) cell line MTXRIIOuaR2-49 was a gift from Dr. Wayne Flintoff (University of Western Ontario, London, ON). Four sublines were derived from the R2 subline by transfection with either RFC, PCFT, FRα, or FRβ, giving rise to PC43-10 (expresses human RFC), 10 R2/PCFT4 (expresses human PCFT),11 RT16 (expresses human FRα), 12 and D4 (expresses FRβ) cells. 12 Isogenic CHO sublines were routinely cultured in α-minimal essential medium (α-MEM) supplemented with 100 units/mL penicillin/100 μg/mL streptomycin, 2 mM L-glutamine and 10% bovine calf serum (Sigma-Aldrich). Transfected sublines of R2 cells were cultured in the presence of 1.5 mg/ml G418. […]
(§7) mM L-glutamine. Cell lines were tested for Mycoplasma by PCR using a Mycloplasma testing kit (Venor™ GeM Mycoplasma Detection Kit, Sigma). Frozen stocks were generated from authenticated Mycoplasma-free cultures.
as §1, §2, §3
(§8) Using KB cells, additional proliferation assays were performed with metabolite protection in folate- and glycine-free RPMI1640 with 10% dialyzed fetal bovine serum, 2 mM L-glutamine and antibiotics with 2 nM leucovorin to identify the targeted pathway and enzyme(s). 7, 8, 11, 12, 15-20 Inhibitory effects of the novel analogs on de novo thymidylate biosynthesis and de novo purine nucleotide biosynthesis were tested by incubating drugs with thymidine (10 μM) and adenosine (60 μM), respectively. […]

For assay [3], the system named is R2/PCFT4 (PCFT) CHO cells. The experiment in a line: Cell proliferation assay, R2/PCFT4 CHO cells expressing human PCFT. Format: cell-based, Chinese hamster. Conditions: for IC50: Cricetulus griseus, R2/PCFT4, 96 h, 0-1000 nM, mean (standard error), 3-5 experiments; for RFC/PCFT Selectivity ratios: ratio of IC50 PC43-10 (RFC) to IC50 R2/PCFT4 (PCFT).
Text: as §4, §5, §6, §7, §1, §2, §3, §8

From article PMC10726441, “Discovery of Tumor-Targeted 6-Methyl Substituted Pemetrexed and Related Antifolates with Selective Loss of RFC Transport” (ACS Medicinal Chemistry Letters, 2023) come the findings set out here.

On to `Nc1nc2[nH]cc(CCc3ccc(C(=O)N[C@@H](CCC(=O)O)C(=O)O)cc3)c2c(=O)[nH]1` [Compound 1, reference compound], for which the IC50 (as a rule, the concentration that inhibits the measured activity by half) was determined as 627 nM in assay [1] and 63.2 nM in assay [2].
In the same order, the values of `Nc1nc2[nH]cc(CCCc3ccc(C(=O)N[C@@H](CCC(=O)O)C(=O)O)cc3)c2c(=O)[nH]1` [Compound 2] are 13.2 nM and 3.54 nM.
For `Nc1nc2[nH]cc(CCc3ccc(C(=O)N[C@@H](CCC(=O)O)C(=O)O)s3)c2c(=O)[nH]1` [Compound 3], the IC50 amounted to 39.3 nM in assay [1], 552 nM in assay [2] and 80.2 nM in assay [3]. For the same molecule, the “RFC/FRβ Selectivity ratios” value in assay [2] turned out to be 0.11. Besides, the “RFC/PCFT Selectivity ratios” value in assay [3] turned out to be 0.75.
Turning to `Nc1nc2[nH]cc(CCc3ccc(C(=O)N[C@@H](CCC(=O)O)C(=O)O)c(F)c3)c2c(=O)[nH]1` [Compound 4], in assay [1], the “inhibition of IOSE 7576 cells (in words)” value was “inactive” and the IC50 was greater than 1000 nM. Further, in assay [2], it took 8.9 nM to reach half-maximal inhibition (IC50) and the “RFC/FRβ Selectivity ratios” value worked out at 19. In assay [3], half-maximal inhibition (IC50) was put at 25.9 nM and the “RFC/PCFT Selectivity ratios” value is given as 6.5.
Take `Cc1[nH]c2nc(N)[nH]c(=O)c2c1CCc1ccc(C(=O)N[C@@H](CCC(=O)O)C(=O)O)cc1` [Compound 5]: the IC50 in assay [1] is greater than 1000 nM. In addition, in assay [2], the IC50 is 5.7 nM and the “RFC/FRβ Selectivity ratios” value was greater than 175. Besides, in assay [3], 7.66 nM corresponded to half-maximal inhibition (IC50) and the “RFC/PCFT Selectivity ratios” value was greater than 130.
As to `Cc1[nH]c2nc(N)[nH]c(=O)c2c1CCCc1ccc(C(=O)N[C@@H](CCC(=O)O)C(=O)O)cc1` [Compound 6], in assay [1], the “inhibition of IOSE 7576 cells (in words)” value is “modestly inhibitory” and the IC50 came out at 824 nM. In assay [2], the IC50 came to 2.61 nM and the “RFC/FRβ Selectivity ratios” value is listed as greater than 383. Also, in assay [3], the IC50 was 64.7 nM and the “RFC/PCFT Selectivity ratios” value is greater than 15.5.
Turning to `Cc1[nH]c2nc(N)[nH]c(=O)c2c1CCc1ccc(C(=O)N[C@@H](CCC(=O)O)C(=O)O)s1` [Compound 7], in assay [1], the IC50 is greater than 1000 nM. Moreover, in assay [2], the IC50 turned out to be 2.98 nM and the “RFC/FRβ Selectivity ratios” value is greater than 335. For the same molecule, in assay [3], the IC50 turned out to be 51.5 nM and the “RFC/PCFT Selectivity ratios” value is greater than 19.4.
For `Cc1[nH]c2nc(N)[nH]c(=O)c2c1CCc1ccc(C(=O)N[C@@H](CCC(=O)O)C(=O)O)c(F)c1` [Compound 8], the results for the IC50 in assay [1], in assay [2] and in assay [3] were greater than 1000 nM, 49 nM and greater than 1000 nM, respectively. For the same molecule, the “RFC/FRβ Selectivity ratios” value in assay [2] was greater than 20.
